Biological target: T1, recombinant human LPLA2 (hLPLA2) (Homo sapiens, UniProt Q8NCC3)
T1 construct: gene PLA2G15; recombinant human enzyme from Proteos
T1 sequence (Q8NCC3 34-412): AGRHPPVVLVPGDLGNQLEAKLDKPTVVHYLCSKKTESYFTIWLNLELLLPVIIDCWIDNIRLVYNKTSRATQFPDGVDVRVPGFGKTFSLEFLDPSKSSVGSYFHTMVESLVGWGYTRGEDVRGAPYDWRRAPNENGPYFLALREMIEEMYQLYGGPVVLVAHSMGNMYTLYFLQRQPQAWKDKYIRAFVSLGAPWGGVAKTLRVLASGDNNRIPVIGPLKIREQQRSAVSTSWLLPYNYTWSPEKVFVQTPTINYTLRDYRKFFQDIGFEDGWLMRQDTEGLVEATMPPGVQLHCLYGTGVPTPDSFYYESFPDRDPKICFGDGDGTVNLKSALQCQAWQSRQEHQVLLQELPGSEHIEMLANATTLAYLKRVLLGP
Assay: oleic acid release from liposomes, HPTLC
Format: biochemical
Conditions: DODPC/S,S-(3,3′,C18:1)-BMP liposomes (2.3:1), 50 mM sodium acetate pH 4.5, 37°C, 5 min pre-incubation of drug with liposomes; read-out: Lipase Inhibition IC50 μM (BMP)^g
Excerpt: oleic acid release from liposomes, HPTLC on recombinant human LPLA2 (hLPLA2)

Row | IC50 | Compound
1 | 20.1 µM | CC/C(=C(\c1ccccc1)c1ccc(OCCN(C)C)cc1)c1ccccc1 [tamoxifen]
2 | 28.7 µM | CC[C@H](NC(=O)c1c(C)c(-c2ccccc2)nc2ccccc12)c1ccccc1 [SB222200, 3-methyl-2-phenyl-N-[(1S)-1-phenylpropyl]quinoline-4-carboxamide]
3 | 9.7 µM | CN(C)CCCN1c2ccccc2Sc2ccc(Cl)cc21 [chlorpromazine, 3-(2-chlorophenothiazin-10-yl)-N,N-dimethylpropan-1-amine]
4 | 24 µM | CCOC(=O)C1=C(COCCN)NC(C)=C(C(=O)OC)C1c1ccccc1Cl (stereo not drawn) [amlodipine, 3-O-ethyl 5-O-methyl 2-(2-aminoethoxymethyl)-4-(2-chlorophenyl)-6-methyl-1,4-dihydropyridine-3,5-dicarboxylate]
5 | 16 µM | CC(C)(C)c1ccc(CN2CCN(C(c3ccccc3)c3ccc(Cl)cc3)CC2)cc1 (stereo not drawn) [buclizine, 1-[(4-tert-butylphenyl)methyl]-4-[(4-chlorophenyl)-phenylmethyl]piperazine]
6 | 40.9 µM | CCN(CC)C(C)CN1c2ccccc2Sc2ccccc21 (stereo not drawn) [profenamine, N,N-diethyl-1-phenothiazin-10-ylpropan-2-amine]
7 | 34.7 µM | COc1ccccc1OCCNCC(O)COc1cccc2[nH]c3ccccc3c12 (stereo not drawn) [carvedilol, 1-(9H-carbazol-4-yloxy)-3-[2-(2-methoxyphenoxy)ethylamino]propan-2-ol]
8 | 18.5 µM | C[C@]12CC[C@@H]3c4ccc(O)cc4C[C@@H](CCCCCCCCC[S+]([O-])CCCC(F)(F)C(F)(F)F)[C@H]3[C@@H]1CC[C@@H]2O (stereo partly drawn) [fulvestrant, (7R,8R,9S,13S,14S,17S)-13-methyl-7-[9-(4,4,5,5,5-pentafluoropentylsulfinyl)nonyl]-6,7,8,9,11,12,14,15,16,17-decahydrocyclopenta[a]phenanthrene-3,17-diol]
9 | 0.849 µM | CCC(=O)O[C@@H](O[P@](=O)(CCCCc1ccccc1)CC(=O)N1C[C@H](C2CCCCC2)C[C@H]1C(=O)O)C(C)C [fosinopril, (2S,4S)-4-cyclohexyl-1-[2-[(2-methyl-1-propanoyloxypropoxy)-(4-phenylbutyl)phosphoryl]acetyl]pyrrolidine-2-carboxylic acid]
10 | 21.8 µM | CCOC(=O)N1CCC(=C2c3ccc(Cl)cc3CCc3cccnc32)CC1 [loratadine, ethyl 4-{13-chloro-4-azatricyclo [9.4.0.03, 8]pentadeca1(11),3(8), 4,6,12,14-hexaen-2-ylidene}piperidine-1-carboxylate]
11 | 18 µM | CCCCc1oc2ccccc2c1C(=O)c1cc(I)c(OCCN(CC)CC)c(I)c1 [amiodarone, (2-butyl-1-benzofuran-3-yl)-[4-[2-(diethylamino)ethoxy]-3,5-diiodophenyl]methanone]
12 | 39.9 µM | O=C(O)[C@@H]1C[C@@H](C2CCCCC2)CN1C(=O)CP(=O)(O)CCCCc1ccccc1 [fosinoprilat, (2S,4S)-4-cyclohexyl-1-{2-[hydroxy(4-phenylbutyl)phosphoryl]acetyl}pyrrolidine-2-carboxylic acid]
13 | 41.7 µM | CN(CCCN1c2ccccc2CCc2ccccc21)CC(=O)c1ccc(Cl)cc1 [lofrepramine, 1-(4-chlorophenyl)-2-[3-(5,6-dihydrobenzo[b][1]benzazepin-11-yl)propyl-methylamino]ethanone]
14 | 31.1 µM | C1CCC(C(CC2CCCCN2)C2CCCCC2)CC1 (stereo not drawn) [perhexiline, 2-(2,2-dicyclohexylethyl) piperidine]
15 | 13.2 µM | CN(C)CCC=C1c2ccccc2C=Cc2ccccc21 [cyclobenzaprine, N,N-dimethyl-3-(2-tricyclo[9.4.0.03,8]pentadeca-1(15),3,5,7,9,11,13-heptaenylidene)propan-1-amine]
16 | 50.6 µM | O=C(c1ccc(OCCN2CCCCC2)cc1)c1c(-c2ccc(O)cc2)sc2cc(O)ccc12 [raloxifene, [6-hydroxy-2-(4-hydroxyphenyl)-1-benzothiophen-3-yl]-[4-(2-piperidin-1-ylethoxy)phenyl]methanone]
17 | 45.8 µM | CC(C)NCC(O)COc1cccc2ccccc12 (stereo not drawn) [propranolol, 1-(naphthalen-1-yloxy)-3-[(propan-2-yl)amino] propan-2-ol]
18 | 20.9 µM | NCC[C@H](Oc1ccc(C(F)(F)F)cc1)c1ccccc1 [seproxitine, (3S)-3-phenyl-3-[4-(trifluoromethyl)phenoxy]propan-1-amine]

Source: publication PMC11277439, “The role of lysosomal phospholipase A2 in the catabolism of bis(monoacylglycerol)phosphate and association with phospholipidosis” (Journal of Lipid Research, 2024)
